{"source": "paper PMC4844702", "about": "“Selective inhibition of the kinase DYRK1A by targeting its folding process” (Nature Communications, 2016)", "assay_in_all_cases": "Kinase panel (Carna)", "format_in_all_cases": "biochemical", "key": {"CRIK": {"target": "T1, CRIK (Homo sapiens, UniProt O14578)", "T1 construct": "purchased Carna Biosciences", "T1 sequence (O14578 whole entry)": "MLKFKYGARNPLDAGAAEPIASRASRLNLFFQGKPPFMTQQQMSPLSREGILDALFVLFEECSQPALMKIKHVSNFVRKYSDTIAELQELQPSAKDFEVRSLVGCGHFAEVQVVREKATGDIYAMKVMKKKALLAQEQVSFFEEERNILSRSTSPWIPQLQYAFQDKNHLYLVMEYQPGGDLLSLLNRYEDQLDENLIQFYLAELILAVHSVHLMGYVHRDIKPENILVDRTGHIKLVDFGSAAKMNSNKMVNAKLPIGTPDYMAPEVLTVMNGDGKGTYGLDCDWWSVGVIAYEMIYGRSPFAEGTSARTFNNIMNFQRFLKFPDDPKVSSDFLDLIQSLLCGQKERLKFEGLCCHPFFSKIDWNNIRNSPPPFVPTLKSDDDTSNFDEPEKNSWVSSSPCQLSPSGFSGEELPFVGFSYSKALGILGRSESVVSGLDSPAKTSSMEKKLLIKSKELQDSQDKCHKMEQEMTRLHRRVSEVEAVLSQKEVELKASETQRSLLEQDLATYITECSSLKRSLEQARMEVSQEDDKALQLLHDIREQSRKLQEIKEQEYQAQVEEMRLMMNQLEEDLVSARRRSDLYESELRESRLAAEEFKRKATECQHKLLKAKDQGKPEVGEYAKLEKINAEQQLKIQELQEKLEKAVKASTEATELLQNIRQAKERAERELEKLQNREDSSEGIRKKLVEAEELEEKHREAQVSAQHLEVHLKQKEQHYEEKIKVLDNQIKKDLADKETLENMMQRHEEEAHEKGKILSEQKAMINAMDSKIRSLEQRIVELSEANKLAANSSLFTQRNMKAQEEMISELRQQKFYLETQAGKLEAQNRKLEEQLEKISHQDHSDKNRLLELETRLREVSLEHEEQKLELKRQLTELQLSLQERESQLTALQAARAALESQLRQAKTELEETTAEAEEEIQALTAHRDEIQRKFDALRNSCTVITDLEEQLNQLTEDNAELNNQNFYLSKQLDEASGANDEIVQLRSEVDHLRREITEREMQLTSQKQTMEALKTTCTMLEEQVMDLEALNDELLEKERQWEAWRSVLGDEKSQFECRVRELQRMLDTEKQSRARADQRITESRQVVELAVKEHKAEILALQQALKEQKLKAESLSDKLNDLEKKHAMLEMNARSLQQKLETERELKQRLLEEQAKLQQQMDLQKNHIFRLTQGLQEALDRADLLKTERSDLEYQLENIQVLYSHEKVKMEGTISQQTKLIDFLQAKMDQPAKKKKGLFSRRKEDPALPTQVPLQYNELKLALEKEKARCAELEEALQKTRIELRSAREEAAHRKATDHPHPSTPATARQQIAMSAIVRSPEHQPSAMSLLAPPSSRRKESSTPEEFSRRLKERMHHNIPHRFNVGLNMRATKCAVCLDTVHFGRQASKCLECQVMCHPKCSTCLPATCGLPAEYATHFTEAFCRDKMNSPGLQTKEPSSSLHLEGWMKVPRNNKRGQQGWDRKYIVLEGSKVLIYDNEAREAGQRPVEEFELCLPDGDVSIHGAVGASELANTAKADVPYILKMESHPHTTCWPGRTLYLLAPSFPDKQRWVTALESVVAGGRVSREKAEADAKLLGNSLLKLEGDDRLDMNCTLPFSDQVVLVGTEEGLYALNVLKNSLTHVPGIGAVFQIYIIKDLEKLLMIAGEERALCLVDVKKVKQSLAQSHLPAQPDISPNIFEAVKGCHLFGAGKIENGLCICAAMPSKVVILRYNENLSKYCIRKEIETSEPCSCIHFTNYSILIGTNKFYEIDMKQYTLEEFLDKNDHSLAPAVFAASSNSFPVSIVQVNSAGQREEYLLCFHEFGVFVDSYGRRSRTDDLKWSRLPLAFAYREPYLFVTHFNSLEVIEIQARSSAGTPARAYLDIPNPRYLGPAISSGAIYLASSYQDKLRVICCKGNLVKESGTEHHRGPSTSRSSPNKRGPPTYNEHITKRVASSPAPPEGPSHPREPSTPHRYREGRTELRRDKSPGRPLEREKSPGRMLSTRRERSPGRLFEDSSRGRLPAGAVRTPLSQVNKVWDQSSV"}, "MINK": {"target": "T2, MINK (Homo sapiens, UniProt Q8N4C8)", "T2 construct": "purchased Carna Biosciences", "text": "(§1) Detailed information on the assay conditions is available on the website of Carna Biosciences (http://www.carnabio.com)."}, "AXL": {"target": "T3, AXL (Homo sapiens, UniProt P30530)", "T3 construct": "purchased Carna Biosciences", "text": "as §1"}, "PKCι": {"target": "T4, PKCι (Homo sapiens, UniProt P41743)", "T4 construct": "purchased Carna Biosciences", "text": "as §1"}, "CaMK2γ": {"target": "T5, CaMK2γ (Homo sapiens, UniProt Q13555)", "T5 construct": "purchased Carna Biosciences"}, "IKKε": {"target": "T6, IKKε (Homo sapiens, UniProt Q14164)", "T6 construct": "purchased Carna Biosciences", "text": "as §1"}, "MARK2": {"target": "T7, MARK2 (Homo sapiens, UniProt Q7KZI7)", "T7 construct": "purchased Carna Biosciences", "text": "as §1"}, "PKD2": {"target": "T8, PKD2 (Homo sapiens, UniProt Q9BZL6)", "T8 construct": "purchased Carna Biosciences", "text": "as §1"}, "ALK": {"target": "T9, ALK (Homo sapiens, UniProt Q9UM73)", "T9 construct": "purchased Carna Biosciences", "text": "as §1"}, "IRR": {"target": "T10, IRR (Homo sapiens, UniProt P14616)", "T10 construct": "purchased Carna Biosciences", "text": "as §1"}, "RSK3": {"target": "T11, RSK3 (Homo sapiens, UniProt Q15349)", "T11 construct": "purchased Carna Biosciences"}, "TBK1": {"target": "T12, TBK1 (Homo sapiens, UniProt Q9UHD2)", "T12 construct": "purchased Carna Biosciences", "text": "as §1"}, "KDR": {"target": "T13, KDR (Homo sapiens, UniProt P35968)", "T13 construct": "purchased Carna Biosciences", "text": "as §1"}, "p70S6K": {"target": "T14, p70S6K (Homo sapiens, UniProt P23443)", "T14 construct": "purchased Carna Biosciences", "text": "as §1"}, "FER": {"target": "T15, FER (Homo sapiens, UniProt P16591)", "T15 construct": "purchased Carna Biosciences", "T15 sequence (P16591 whole entry)": "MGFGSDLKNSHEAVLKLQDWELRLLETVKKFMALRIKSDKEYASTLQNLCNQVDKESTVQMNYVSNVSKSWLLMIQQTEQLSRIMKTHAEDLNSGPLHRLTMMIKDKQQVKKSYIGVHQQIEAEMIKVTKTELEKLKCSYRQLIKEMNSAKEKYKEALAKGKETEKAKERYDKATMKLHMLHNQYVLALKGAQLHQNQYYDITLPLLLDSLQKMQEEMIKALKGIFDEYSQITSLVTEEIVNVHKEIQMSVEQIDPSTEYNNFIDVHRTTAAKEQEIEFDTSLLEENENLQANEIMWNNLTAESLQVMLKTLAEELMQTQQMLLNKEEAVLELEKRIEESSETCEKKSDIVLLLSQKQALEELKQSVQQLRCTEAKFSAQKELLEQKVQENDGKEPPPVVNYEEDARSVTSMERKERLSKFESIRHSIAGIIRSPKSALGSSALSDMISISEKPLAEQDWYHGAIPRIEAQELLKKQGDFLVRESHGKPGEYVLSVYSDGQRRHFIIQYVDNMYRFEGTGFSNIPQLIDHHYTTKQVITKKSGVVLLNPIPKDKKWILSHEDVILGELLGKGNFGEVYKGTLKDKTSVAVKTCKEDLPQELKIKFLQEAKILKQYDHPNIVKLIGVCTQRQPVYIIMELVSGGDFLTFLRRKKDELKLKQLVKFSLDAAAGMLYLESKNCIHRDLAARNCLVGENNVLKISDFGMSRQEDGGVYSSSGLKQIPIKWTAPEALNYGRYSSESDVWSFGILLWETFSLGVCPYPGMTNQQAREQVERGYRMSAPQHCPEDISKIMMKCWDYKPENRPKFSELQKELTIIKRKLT", "text": "as §1"}, "FYN": {"target": "T16, FYN (Homo sapiens, UniProt P06241)", "T16 construct": "purchased Carna Biosciences", "text": "as §1"}, "NEK9": {"target": "T17, NEK9 (Homo sapiens, UniProt Q8TD19)", "T17 construct": "purchased Carna Biosciences"}, "p70S6Kβ": {"target": "T18, p70S6Kβ (Homo sapiens, UniProt Q9UBS0)", "T18 construct": "purchased Carna Biosciences", "text": "as §1"}, "MAP2K5_Cascade": {"target": "T19, MAP2K5_Cascade (Homo sapiens, UniProt Q13163)", "T19 construct": "purchased Carna Biosciences"}, "MUSK": {"target": "T20, MUSK (Homo sapiens, UniProt O15146)", "T20 construct": "purchased Carna Biosciences", "text": "as §1"}, "DAPK1": {"target": "T21, DAPK1 (Homo sapiens, UniProt P53355)", "T21 construct": "purchased Carna Biosciences", "text": "as §1"}, "MNK2": {"target": "T22, MNK2 (Homo sapiens, UniProt Q9HBH9)", "T22 construct": "purchased Carna Biosciences"}, "CDK9/CycT1": {"target": "T23, CDK9/CycT1 (Homo sapiens, UniProt P50750)", "T23 construct": "purchased Carna Biosciences", "text": "as §1"}, "SYK": {"target": "T24, SYK (Homo sapiens, UniProt P43405)", "T24 construct": "purchased Carna Biosciences", "text": "as §1"}, "QIK": {"target": "T25, QIK (Homo sapiens, UniProt Q9H0K1)", "T25 construct": "purchased Carna Biosciences"}, "BMX": {"target": "T26, BMX (Homo sapiens, UniProt P51813)", "T26 construct": "purchased Carna Biosciences", "text": "as §1"}, "PKCα": {"target": "T27, PKCα (Homo sapiens, UniProt P17252)", "T27 construct": "purchased Carna Biosciences"}, "NEK2": {"target": "T28, NEK2 (Homo sapiens, UniProt P51955)", "T28 construct": "purchased Carna Biosciences"}, "DCAMKL2": {"target": "T29, DCAMKL2 (Homo sapiens, UniProt Q8N568)", "T29 construct": "purchased Carna Biosciences", "text": "as §1"}, "FES": {"target": "T30, FES (Homo sapiens, UniProt P07332)", "T30 construct": "purchased Carna Biosciences", "T30 sequence (P07332 whole entry)": "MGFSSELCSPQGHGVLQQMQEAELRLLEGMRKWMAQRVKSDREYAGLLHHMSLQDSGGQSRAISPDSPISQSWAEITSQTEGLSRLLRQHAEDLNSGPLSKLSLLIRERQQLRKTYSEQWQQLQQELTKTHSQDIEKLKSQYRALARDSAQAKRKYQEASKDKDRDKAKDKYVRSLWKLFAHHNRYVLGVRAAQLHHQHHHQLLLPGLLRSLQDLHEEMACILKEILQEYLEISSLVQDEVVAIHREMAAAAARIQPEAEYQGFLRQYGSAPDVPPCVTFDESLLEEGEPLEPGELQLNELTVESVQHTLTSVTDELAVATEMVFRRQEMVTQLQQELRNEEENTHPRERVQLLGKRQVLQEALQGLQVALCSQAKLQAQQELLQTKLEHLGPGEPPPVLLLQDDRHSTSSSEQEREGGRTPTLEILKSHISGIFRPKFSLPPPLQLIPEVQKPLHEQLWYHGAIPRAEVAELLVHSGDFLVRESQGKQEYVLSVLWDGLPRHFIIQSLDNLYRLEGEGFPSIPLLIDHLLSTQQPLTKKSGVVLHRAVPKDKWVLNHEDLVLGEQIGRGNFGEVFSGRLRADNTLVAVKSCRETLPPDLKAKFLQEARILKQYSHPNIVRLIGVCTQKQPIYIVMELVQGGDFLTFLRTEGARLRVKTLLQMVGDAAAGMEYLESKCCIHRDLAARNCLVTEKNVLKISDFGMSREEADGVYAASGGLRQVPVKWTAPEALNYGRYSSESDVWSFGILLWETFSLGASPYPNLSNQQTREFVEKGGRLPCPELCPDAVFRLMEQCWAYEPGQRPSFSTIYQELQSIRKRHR", "text": "as §1"}, "SLK": {"target": "T31, SLK (Homo sapiens, UniProt Q9H2G2)", "T31 construct": "purchased Carna Biosciences", "text": "as §1"}, "MSK1": {"target": "T32, MSK1 (Homo sapiens, UniProt O75582)", "T32 construct": "purchased Carna Biosciences", "text": "as §1"}, "FLT1": {"target": "T33, FLT1 (Homo sapiens, UniProt P17948)", "T33 construct": "purchased Carna Biosciences", "T33 sequence (P17948 27-1338)": "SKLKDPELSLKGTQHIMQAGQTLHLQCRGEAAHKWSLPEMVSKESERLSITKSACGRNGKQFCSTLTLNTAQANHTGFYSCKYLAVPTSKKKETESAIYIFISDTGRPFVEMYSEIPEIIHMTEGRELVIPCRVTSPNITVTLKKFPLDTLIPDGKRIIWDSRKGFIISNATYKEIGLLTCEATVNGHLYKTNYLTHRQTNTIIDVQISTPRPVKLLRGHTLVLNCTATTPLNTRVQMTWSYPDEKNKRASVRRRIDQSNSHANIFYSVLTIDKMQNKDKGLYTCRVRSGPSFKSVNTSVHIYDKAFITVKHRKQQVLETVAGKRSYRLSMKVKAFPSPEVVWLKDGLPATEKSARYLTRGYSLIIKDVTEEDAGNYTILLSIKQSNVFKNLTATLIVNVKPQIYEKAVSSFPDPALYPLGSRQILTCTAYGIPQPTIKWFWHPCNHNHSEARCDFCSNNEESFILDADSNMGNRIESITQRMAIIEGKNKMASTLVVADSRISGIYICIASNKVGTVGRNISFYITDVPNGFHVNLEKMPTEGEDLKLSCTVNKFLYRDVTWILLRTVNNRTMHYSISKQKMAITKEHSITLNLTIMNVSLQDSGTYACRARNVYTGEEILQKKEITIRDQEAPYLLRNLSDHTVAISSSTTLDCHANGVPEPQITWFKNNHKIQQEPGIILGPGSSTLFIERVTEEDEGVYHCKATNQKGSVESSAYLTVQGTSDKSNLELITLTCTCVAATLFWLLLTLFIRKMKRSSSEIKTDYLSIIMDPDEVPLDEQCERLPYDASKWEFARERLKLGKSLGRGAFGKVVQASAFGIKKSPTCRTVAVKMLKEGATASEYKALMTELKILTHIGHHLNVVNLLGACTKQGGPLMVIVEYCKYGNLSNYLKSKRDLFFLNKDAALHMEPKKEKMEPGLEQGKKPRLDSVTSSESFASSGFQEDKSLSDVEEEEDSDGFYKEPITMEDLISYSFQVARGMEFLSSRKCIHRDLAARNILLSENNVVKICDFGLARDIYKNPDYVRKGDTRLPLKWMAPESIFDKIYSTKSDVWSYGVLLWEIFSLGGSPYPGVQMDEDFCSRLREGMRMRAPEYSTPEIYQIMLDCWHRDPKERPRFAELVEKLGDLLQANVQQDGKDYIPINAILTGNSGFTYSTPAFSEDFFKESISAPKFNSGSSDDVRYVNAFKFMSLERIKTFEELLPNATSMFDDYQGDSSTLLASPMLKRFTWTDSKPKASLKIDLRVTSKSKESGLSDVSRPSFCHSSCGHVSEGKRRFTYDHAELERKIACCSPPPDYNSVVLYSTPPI", "text": "as §1"}, "PLK3": {"target": "T34, PLK3 (Homo sapiens, UniProt Q9H4B4)", "T34 construct": "purchased Carna Biosciences", "settings": "10 µM FINDY"}, "PKACβ": {"target": "T35, PKACβ (Homo sapiens, UniProt P22694)", "T35 construct": "purchased Carna Biosciences"}, "AKT2": {"target": "T36, AKT2 (Homo sapiens, UniProt P31751)", "T36 construct": "purchased Carna Biosciences", "text": "as §1"}, "ACK": {"target": "T37, ACK (Homo sapiens, UniProt Q07912)", "T37 construct": "purchased Carna Biosciences", "text": "as §1"}, "CaMK4": {"target": "T38, CaMK4 (Homo sapiens, UniProt Q16566)", "T38 construct": "purchased Carna Biosciences"}, "SGK2": {"target": "T39, SGK2 (Homo sapiens, UniProt Q9HBY8)", "T39 construct": "purchased Carna Biosciences"}, "WNK1": {"target": "T40, WNK1 (Homo sapiens, UniProt Q9H4A3)", "T40 construct": "purchased Carna Biosciences", "text": "as §1"}, "CaMK2δ": {"target": "T41, CaMK2δ (Homo sapiens, UniProt Q13557)", "T41 construct": "purchased Carna Biosciences"}, "PAK4": {"target": "T42, PAK4 (Homo sapiens, UniProt O96013)", "T42 construct": "purchased Carna Biosciences", "text": "as §1"}, "MST2": {"target": "T43, MST2 (Homo sapiens, UniProt Q13188)", "T43 construct": "purchased Carna Biosciences", "text": "as §1"}, "LYNa": {"target": "T44, LYNa (Homo sapiens, UniProt P07948)", "T44 construct": "purchased Carna Biosciences", "text": "as §1"}, "EPHA2": {"target": "T45, EPHA2 (Homo sapiens, UniProt P29317)", "T45 construct": "purchased Carna Biosciences"}}}
{"smiles": "COc1ccc(/C=C2\\SC(=S)NC2=O)cc1C#C[Si](C)(C)C", "note": "[FINDY]", "values": [{"measurement": "inhibition at 10 µM", "setting": "CRIK", "result": 1.9, "unit": "%"}, {"measurement": "inhibition at 10 µM", "setting": "MINK", "result": 5, "unit": "%"}, {"measurement": "inhibition at 10 µM", "setting": "AXL", "result": 6.7, "unit": "%"}, {"measurement": "inhibition at 10 µM", "setting": "PKCι", "result": -4.3, "unit": "%"}, {"measurement": "inhibition at 10 µM", "setting": "CaMK2γ", "result": -4.6, "unit": "%"}, {"measurement": "inhibition at 10 µM", "setting": "IKKε", "result": -2, "unit": "%"}, {"measurement": "inhibition at 10 µM", "setting": "MARK2", "result": 60.8, "unit": "%"}, {"measurement": "inhibition at 10 µM", "setting": "PKD2", "result": 29.9, "unit": "%"}, {"measurement": "inhibition at 10 µM", "setting": "ALK", "result": -4.3, "unit": "%"}, {"measurement": "inhibition at 10 µM", "setting": "IRR", "result": 3, "unit": "%"}, {"measurement": "inhibition at 10 µM", "setting": "RSK3", "result": 28, "unit": "%"}, {"measurement": "inhibition at 10 µM", "setting": "TBK1", "result": 4, "unit": "%"}, {"measurement": "inhibition at 10 µM", "setting": "KDR", "result": 1.6, "unit": "%"}, {"measurement": "inhibition at 10 µM", "setting": "p70S6K", "result": 7.4, "unit": "%"}, {"measurement": "inhibition at 10 µM", "setting": "FER", "result": 14.3, "unit": "%"}, {"measurement": "inhibition at 10 µM", "setting": "FYN", "result": 58.4, "unit": "%"}, {"measurement": "inhibition at 10 µM", "setting": "NEK9", "result": -3.3, "unit": "%"}, {"measurement": "inhibition at 10 µM", "setting": "p70S6Kβ", "result": 19.9, "unit": "%"}, {"measurement": "inhibition at 10 µM", "setting": "MAP2K5_Cascade", "result": -0.1, "unit": "%"}, {"measurement": "inhibition at 10 µM", "setting": "MUSK", "result": 4.1, "unit": "%"}, {"measurement": "inhibition at 10 µM", "setting": "DAPK1", "result": 14.8, "unit": "%"}, {"measurement": "inhibition at 10 µM", "setting": "MNK2", "result": 8.3, "unit": "%"}, {"measurement": "inhibition at 10 µM", "setting": "CDK9/CycT1", "result": 3.1, "unit": "%"}, {"measurement": "inhibition at 10 µM", "setting": "SYK", "result": 72.8, "unit": "%"}, {"measurement": "inhibition at 10 µM", "setting": "QIK", "result": -7.7, "unit": "%"}, {"measurement": "inhibition at 10 µM", "setting": "BMX", "result": 10.5, "unit": "%"}, {"measurement": "inhibition at 10 µM", "setting": "PKCα", "result": 0.6, "unit": "%"}, {"measurement": "inhibition at 10 µM", "setting": "NEK2", "result": -5.1, "unit": "%"}, {"measurement": "inhibition at 10 µM", "setting": "DCAMKL2", "result": -3.8, "unit": "%"}, {"measurement": "inhibition at 10 µM", "setting": "FES", "result": 1.6, "unit": "%"}, {"measurement": "inhibition at 10 µM", "setting": "SLK", "result": -35, "unit": "%"}, {"measurement": "inhibition at 10 µM", "setting": "MSK1", "result": 3.8, "unit": "%"}, {"measurement": "inhibition at 10 µM", "setting": "FLT1", "result": 6.6, "unit": "%"}, {"measurement": "inhibition at 10 µM", "setting": "PLK3", "result": 76.3, "unit": "%"}, {"measurement": "inhibition at 10 µM", "setting": "PKACβ", "result": 65.3, "unit": "%"}, {"measurement": "inhibition at 10 µM", "setting": "AKT2", "result": 23.5, "unit": "%"}, {"measurement": "inhibition at 10 µM", "setting": "ACK", "result": -2.2, "unit": "%"}, {"measurement": "inhibition at 10 µM", "setting": "CaMK4", "result": 2.4, "unit": "%"}, {"measurement": "inhibition at 10 µM", "setting": "SGK2", "result": 30.9, "unit": "%"}, {"measurement": "inhibition at 10 µM", "setting": "WNK1", "result": 12.6, "unit": "%"}, {"measurement": "inhibition at 10 µM", "setting": "CaMK2δ", "result": -4, "unit": "%"}, {"measurement": "inhibition at 10 µM", "setting": "PAK4", "result": -20.1, "unit": "%"}, {"measurement": "inhibition at 10 µM", "setting": "MST2", "result": -5.7, "unit": "%"}, {"measurement": "inhibition at 10 µM", "setting": "LYNa", "result": 4, "unit": "%"}, {"measurement": "inhibition at 10 µM", "setting": "EPHA2", "result": 16.3, "unit": "%"}]}
